Measurements from patent publication US8163909B2, “Substituted hydroxyethyl amine compounds as beta-secretase modulators and methods of use” (Amgen Inc., priority 2007, dated 2012).
Read-outs that look alike come from different tables or passages of the source.

Experiments:
Abeta peptide = assay: In vivo inhibition of beta-secretase (reduction of Abeta peptide in brain and cerebrospinal fluid); parameters: species or system rat; details: Rattus norvegicus, po, 4 h, orally administered at 30 mg/kg dose, measured after 4 hours;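 also: abeta peptide quantified by sandwich ELISA with electrochemiluminescence readout in rat brain supernatant or CSF, relative to vehicle-dosed control animals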
[1] = Microsomal stability assay, rat liver microsomes;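 also: rat liver microsomes (0.25 mg/mL) with about 1 µM compound plus 1 mM NADPH, pH 7.4, 37 °C for 30 min, parent left measured by LC-MS/MS against 0 min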
[2] = Microsomal stability assay, human liver microsomes;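 also: pooled human liver microsomes at 0.25 mg/mL with 1 µM compound and NADPH at 37 °C, pH 7.4, for 30 min, unchanged parent quantified by LC-MS/MS against the 0 min sample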
[3] = target: Beta Secretase enzyme (BACE) (Homo sapiens, UniProt P56817); assay: In vitro enzymatic BACE FRET (fluorescence resonance energy transfer) assay; type: biochemical;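 also: fluorescence read after 1 h with 50 nM quenched peptide substrate spanning the BACE cleavage site, in pH 4.2 acetate buffer containing 10% DMSO and nonionic detergent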
[4] = tested on: Aβ40 in conditioned medium of cells stably expressing Amyloid Precursor Protein (APP); assay: In vitro BACE cell-based assay (Aβ40 in conditioned medium, sandwich ELISA); details: Homo sapiens;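 also: compounds added as a dilution series, secreted peptide quantified by europium time-resolved fluorescence readout, potency fitted from percent of control versus compound concentration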
CYP2D6 = CYP2D6 (Homo sapiens, UniProt P10635); assay: CYP2D6 inhibition assay (bufuralol, pooled human liver microsomes)
CYP3A4 (CYP3A) = CYP3A4 (CYP3A) (Homo sapiens, UniProt P08684); assay: in vitro; details: microsomes, pH 7.4;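 also: inhibition of CYP3A-mediated 1-hydroxymidazolam formation after 10 min incubation with NADPH, quantified by HPLC MS relative to metabolite produced without test compound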
[5] = rat cerebrospinal fluid, read-out: percent reduction of abeta peptide in the cerebrospinal fluid of the rat
[6] = read-out: BACE1 FRET assay (IC50)
[7] = HEK293, HEK cells, read-out: HEK cell assay (IC50)
[8] = rat brain, read-out: percent reduction of abeta peptide in the brain of the rat
[9] = BACE enzyme assay, IC50's in uM, read-out: BACE1 FRET assay
[10] = HEK293, HEK cell-based assay, IC50's in uM, read-out: HEK cell assay
[11] = 2D6 IC50 (uM), CYP enzyme inhibition
[12] = 2D6 IC50, CYP enzyme inhibition
[13] = BACE enzyme assay IC50, read-out: BACE1 FRET assay
[14] = HEK293, HEK cell-based assay IC50, read-out: HEK cell assay
[15] = 2D6 IC50 (uM), CYP2D6 inhibition
[16] = BACE enzyme assay, read-out: BACE1 FRET assay
[17] = HEK293, HEK cells, read-out: HEK cell assay
[18] = Table 2, read-out: BACE1 FRET assay
[19] = HEK293, Table 2, HEK cells, read-out: HEK cell assay

Sequence of CYP2D6 (P10635 whole entry): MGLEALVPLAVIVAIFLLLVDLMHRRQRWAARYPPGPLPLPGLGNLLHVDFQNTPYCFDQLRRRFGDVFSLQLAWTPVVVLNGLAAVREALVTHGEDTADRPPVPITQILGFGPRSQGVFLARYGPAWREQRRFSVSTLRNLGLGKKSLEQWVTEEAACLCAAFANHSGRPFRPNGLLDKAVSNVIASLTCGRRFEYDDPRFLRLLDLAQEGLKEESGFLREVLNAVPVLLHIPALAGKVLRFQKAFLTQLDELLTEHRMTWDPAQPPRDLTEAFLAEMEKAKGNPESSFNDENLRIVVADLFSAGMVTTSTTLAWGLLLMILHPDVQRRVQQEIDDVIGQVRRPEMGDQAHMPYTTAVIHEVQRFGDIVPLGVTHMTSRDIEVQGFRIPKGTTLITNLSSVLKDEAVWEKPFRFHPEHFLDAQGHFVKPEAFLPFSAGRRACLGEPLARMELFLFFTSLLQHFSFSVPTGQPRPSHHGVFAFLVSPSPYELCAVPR
Sequence of Beta Secretase enzyme (BACE) (P56817 46-501): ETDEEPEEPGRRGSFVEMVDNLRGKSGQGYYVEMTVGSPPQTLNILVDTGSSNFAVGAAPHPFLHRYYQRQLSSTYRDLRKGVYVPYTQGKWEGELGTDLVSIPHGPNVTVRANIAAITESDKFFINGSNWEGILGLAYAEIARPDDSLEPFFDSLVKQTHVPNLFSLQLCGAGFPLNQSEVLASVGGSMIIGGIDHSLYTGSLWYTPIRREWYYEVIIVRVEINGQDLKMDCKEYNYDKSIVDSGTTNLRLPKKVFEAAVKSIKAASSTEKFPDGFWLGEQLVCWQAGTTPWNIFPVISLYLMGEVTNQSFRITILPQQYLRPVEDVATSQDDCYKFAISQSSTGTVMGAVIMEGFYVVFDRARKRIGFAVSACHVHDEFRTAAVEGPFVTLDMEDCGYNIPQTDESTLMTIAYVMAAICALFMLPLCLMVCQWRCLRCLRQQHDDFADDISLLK
Sequence of CYP3A4 (CYP3A) (P08684 2-503): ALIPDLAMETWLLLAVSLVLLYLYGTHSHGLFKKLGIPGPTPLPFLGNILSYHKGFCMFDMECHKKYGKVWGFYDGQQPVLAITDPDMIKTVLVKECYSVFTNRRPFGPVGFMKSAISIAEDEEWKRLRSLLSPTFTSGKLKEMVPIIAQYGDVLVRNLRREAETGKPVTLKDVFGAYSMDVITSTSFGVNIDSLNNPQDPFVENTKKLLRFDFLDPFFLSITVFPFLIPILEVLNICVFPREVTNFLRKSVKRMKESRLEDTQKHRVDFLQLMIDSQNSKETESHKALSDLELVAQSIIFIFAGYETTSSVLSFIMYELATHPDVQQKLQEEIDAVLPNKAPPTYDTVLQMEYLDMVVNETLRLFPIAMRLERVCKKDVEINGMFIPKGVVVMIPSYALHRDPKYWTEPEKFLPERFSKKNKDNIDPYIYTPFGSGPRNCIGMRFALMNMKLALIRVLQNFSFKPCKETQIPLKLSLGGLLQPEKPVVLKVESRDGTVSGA

SMILES | RLM ([1]; rat liver microsomes) | HLM ([2]; human liver microsomes) | IC50 [3, 6] | IC50 [4, 7] | RLM ([1]; rat liver microsomal data) | HLM ([2]; human liver microsomal data) | IC50 (CYP2D6; [11]) | IC50 (CYP3A4 (CYP3A)) | other results
CO[C@H](C)C(=O)N[C@@H](Cc1cccc(C#N)c1)[C@H](O)CN[C@H]1CC2(CCC2)Oc2c(-c3ccncc3)cc(CC(C)(C)C)cc21 [Example 638] | 92 µL/min/mg | 32 µL/min/mg | 0.017 µM | 0.006 µM | – | – | – | – | inhibition in vivo at 30 mg/kg (Abeta peptide; [5]): 10 to 80%; IC50 (CYP2D6; 2D6 IC50, CYP2D6 inhibition): 3 µM
COCC(=O)N[C@@H](Cc1ccc(F)c(-c2nccs2)c1)[C@H](O)CN[C@H]1CC2(CCC2)Oc2ncc(CC(C)(C)C)cc21 [Example 650, N-((1S,2R)-3-(((4′S)-6′-(2,2-dimethylpropyl)-3′,4′-dihydrospiro[cyclobutane-1,2′-pyrano[2,3-b]pyridin]-4′-yl)amino)-1-(4-fluoro-3-(1,3-thiazol-2-yl)benzyl)-2-hydroxypropyl)-2-methoxyacetamide] | – | – | – | – | – | – | – | – | inhibition in vivo at 30 mg/kg (Abeta peptide; [8]): 5 to 80%
C#Cc1cccc(C[C@H](NC(=O)COC)[C@H](O)CN[C@H]2CC3(CCC3)Oc3ncc(CC(C)C)cc32)c1 [Example 756] | – | – | – | – | 49 µL/min/mg | 53 µL/min/mg | 1.4 µM | – | inhibition in vivo at 30 mg/kg (Abeta peptide; [5]): 10 to 80%; IC50 [3, 9]: 0.005 µM; IC50 [4, 10]: 0.009 µM
C#Cc1cc(F)cc(C[C@H](NC(=O)[C@@H](C)OC)[C@H](O)CN[C@H]2CC3(CCC3)Oc3ncc(CC(C)C)cc32)c1 [Example 835] | – | – | – | – | 109 µL/min/mg | 48 µL/min/mg | 2.1 µM | – | inhibition in vivo at 30 mg/kg (Abeta peptide; [8]): 5 to 80%; IC50 [3, 9]: 0.006 µM; IC50 [4, 10]: 0.026 µM
C#Cc1cccc(C[C@H](NC(=O)COCC)[C@H](O)CN[C@H]2CC3(CCC3)Oc3ncc(CC(C)(C)C)cc32)c1 [Example 870, N-((1S,2R)-3-(((4′S)-6′-(2,2-dimethylpropyl)-3′,4′-dihydrospiro[cyclobutane-1,2′-pyrano[2,3-b]pyridin]-4′-yl)amino)-1-(3-ethynylbenzyl)-2-hydroxypropyl)-2-ethoxyacetamide] | – | – | – | – | – | – | – | – | inhibition in vivo at 30 mg/kg (Abeta peptide; [5]): ≥ 50%; IC50 [3, 9]: 0.004 µM; IC50 ([4]; HEK293, cell-based assay, HEK cells, IC50's in uM, read-out: HEK cell assay): 0.011 µM; IC50 (CYP2D6; [12]): 1.6 µM
COCC(=O)N[C@@H](Cc1cc(F)cc(F)c1)[C@H](O)CN[C@H]1CC2(CCC2)Oc2c1cc(CC(C)(C)C)nc2-c1cncn1C [Example 597] | 35 µL/min/mg | 22 µL/min/mg | 0.034 µM | 0.011 µM | – | – | – | – | inhibition in vivo at 30 mg/kg (Abeta peptide; [5]): 10 to 80%; IC50 (CYP2D6; 2D6 IC50, CYP2D6 inhibition): 2.8 µM
CC(C)Cc1cnc2c(c1)[C@@H](NC[C@@H](O)[C@H](Cc1ccc3c(c1)OCO3)NC(=O)[C@@H](C)F)CC1(CCC1)O2 [Example 600] | – | – | 0.03 µM | 0.035 µM | – | – | – | – | inhibition in vivo at 30 mg/kg (Abeta peptide; [8]): 5 to 80%; inhibition in vivo at 30 mg/kg (Abeta peptide; [5]): 10 to 80%
C#Cc1cc2c(c(-n3ccnc3)c1)OC1(CCC1)C[C@@H]2NC[C@@H](O)[C@H](Cc1cc(F)cc(F)c1)NC(=O)COC [compound 689] | 44.5 µL/min/mg | 18.5 µL/min/mg | – | – | – | – | – | ≤ 30 nM | IC50 [3, 13]: 0.038 µM; IC50 [4, 14]: 0.027 µM; IC50 (CYP2D6; [15]): 0.2 µM
COCC(=O)N[C@@H](Cc1cccc(F)c1)[C@H](O)CN[C@H]1CC2(CCC2)Oc2c1cc(CC(C)(C)OC)cc2-n1ccnc1.O=C(O)C(F)(F)F [Example 423] | 132 µL/min/mg | 35 µL/min/mg | 0.579 µM | 0.063 µM | – | – | – | 100 nM | IC50 (CYP2D6; 2D6 IC50, CYP2D6 inhibition): 0.3 µM
COCC(=O)N[C@@H](Cc1ccc(F)cc1)[C@H](O)CN[C@H]1CC2(CCC2)Oc2ncc(CC(C)(C)C#N)cc21 [compound 496] | – | – | – | – | 139 µL/min/mg | 89 µL/min/mg | ≥ 27 µM | 4700 nM | IC50 [3, 16]: 0.024 µM; IC50 [4, 17]: 0.102 µM
CC(=O)C(C)(C)C(=O)N[C@@H](Cc1ccc2c(c1)OCO2)[C@H](O)CN[C@H]1CC2(CCC2)Oc2ncc(CC(C)(C)C)cc21 [compound 457] | – | – | – | – | 90 µL/min/mg | 44 µL/min/mg | – | 100 nM | IC50 [3, 18]: 0.792 µM; IC50 [4, 19]: 0.905 µM; IC50 (CYP2D6; [12]): 2.4 µM
CO[C@H](C)C(=O)N[C@@H](Cc1cc(F)cc(-c2nccs2)c1)[C@H](O)CN[C@H]1CC2(CCC2)Oc2ccc(CC(C)C)cc21 [compound 770] | – | – | – | – | 201 µL/min/mg | 145 µL/min/mg | 0.5 µM | 300 nM | IC50 [3, 9]: 0.01 µM; IC50 [4, 10]: 0.052 µM
CO[C@H](C)C(=O)N[C@@H](Cc1cccc(C#N)c1)[C@H](O)CN[C@H]1CC2(CC(F)(F)C2)Oc2ncc(CC(C)(C)C)cc21 [compound 471] | – | – | – | – | 536 µL/min/mg | 569 µL/min/mg | – | 1100 nM | IC50 [3, 18]: 0.004 µM; IC50 [4, 19]: 0.012 µM; IC50 (CYP2D6; [12]): 10.3 µM
CO[C@H](C)C(=O)N[C@@H](Cc1cccc(F)c1)[C@H](O)CN[C@@H]1CC2(CCC2)Oc2c1cc(CC(C)(C)C)nc2-n1ccnc1 [compound 501] | – | – | – | – | 175 µL/min/mg | 86 µL/min/mg | 2.8 µM | 100 nM | IC50 [3, 16]: 5.3 µM; IC50 [4, 17]: > 10 µM
CC(C)(C)Cc1cnc2c(c1)[C@@H](NC[C@@H](O)[C@H](Cc1cccc(C#N)c1)NC(=O)[C@H]1CCCO1)CC1(CC(F)(F)C1)O2 [compound 472] | – | – | – | – | 775 µL/min/mg | 736 µL/min/mg | – | 800 nM | IC50 [3, 18]: 0.005 µM; IC50 [4, 19]: 0.015 µM; IC50 (CYP2D6; [12]): 7.1 µM
COCC(=O)N[C@@H](Cc1cc(F)cc(-c2nccs2)c1)[C@H](O)CN[C@H]1CC2(CCC2)Oc2cnc(CC(C)(C)F)cc21 [compound 718, N-((1S,2R)-3-(((4′S)-6′-(2-fluoro-2-methylpropyl)-3′,4′-dihydrospiro[cyclobutane-1,2′-pyrano[2,3-c]pyridin]-4′-yl)amino)-1-(3-fluoro-5-(1,3-thiazol-2-yl)benzyl)-2-hydroxypropyl)-2-methoxyacetamide] | 140 µL/min/mg | 113 µL/min/mg | – | – | – | – | – | 300 nM | IC50 [3, 13]: 0.051 µM; IC50 [4, 14]: 0.062 µM; IC50 (CYP2D6; [15]): 0.5 µM
COCC(=O)N[C@@H](Cc1cc(F)cc(F)c1)[C@H](O)CN[C@H]1CC2(CCC2)Oc2c1cc(CC(C)C)nc2Cl [compound 667] | 682 µL/min/mg | 399 µL/min/mg | 0.005 µM | 0.054 µM | – | – | – | 600 nM | IC50 (CYP2D6; 2D6 IC50, CYP2D6 inhibition): 6.3 µM
COCC(=O)N[C@@H](Cc1ccc2c(c1)OCO2)[C@H](O)CN[C@H]1CC2(CCC2)Oc2ncc([C@H]3CC3(C)C)cc21 [compound 576] | 209 µL/min/mg | 31 µL/min/mg | 0.328 µM | 0.249 µM | – | – | – | 100 nM | IC50 (CYP2D6; 2D6 IC50, CYP2D6 inhibition): 2.7 µM
C#Cc1cccc(C[C@H](NC(=O)C(OC)OC)[C@H](O)CN[C@H]2CC3(CCC3)Oc3ncc(CC(C)(F)F)cc32)c1 [compound 830] | – | – | – | – | 35 µL/min/mg | 28 µL/min/mg | 1.3 µM | 100 nM | IC50 [3, 9]: 0.007 µM; IC50 [4, 10]: 0.023 µM
CC(=O)N[C@@H](Cc1ccc(F)cc1)[C@H](O)CN[C@H]1CC2(CCC2)Oc2c1cc(CC(C)(C)C)nc2N1CCOCC1 [Example 421, N-((2S,3R)-4-((S)-2,2-spirocyclobutyl-8-morpholino-6-neopentyl-3,4-dihydro-2H-pyrano[2,3-c]pyridin-4-ylamino)-1-(4-fluorophenyl)-3-hydroxybutan-2-yl)acetamide] | – | – | – | – | 151 µL/min/mg | 211 µL/min/mg | 3.6 µM | 1300 nM | IC50 [3, 16]: 0.134 µM; IC50 [4, 17]: 0.054 µM
